Key:
[1] = tested on: H4K20me3 in PC-3 cells (SUV420H1 cellular activity); assay: H4K20me3 Cellular PD Assay (high content microscopy); assay type: cell-based; settings: Homo sapiens, treated for 72 hours, H4K20me3 immunofluorescence, read-out: H4K20me3 Inhibition EC50
Protocol: A high content microscopy-based PD assay was used to analyze the decrease of H4K20me3 upon inhibition of SUV420H1 cellular activity. PC-3 cells were plated at 3,000 cells per well in black Collagen I coated 96-well plates (Perkin Elmer, #6005810) in RPMI supplemented with 10% heat inactivated FBS, 1% sodium pyruvate and 1% non-essential amino acids in a 37° C. tissue culture incubator. At 24 hours post seeding, cells were treated with the indicated compounds for 72 hours in an 8-point dose response using half log dilutions from […] and then fixed in 2% formaldhyde (Polysciences, Inc., #04018) for 10 minutes at room temperature. Cells were washed in PBS and permeablized in 0.1% Triton X-100 for 10 minutes at room temperature. After blocking in 1% BSA (Sigma, #A7030) in PBS for 1 hour at room temperature, a mouse monoclonal antibody directed toward H4K20me3 (Santa Cruz, #sc-134216) in antibody dilution buffer (0.3% BSA in PBS) was added for 16 hours at 4° C. Cells were then washed 3 times in PBS and an Alexa Fluor 555 conjugated goat anti-mouse (Life Technologies #A-21424) secondary antibody was added for 1 hour at room temperature. Hoechst 33342 diluted 1:10000 (Life Technologies #H3570) was also added during the secondary antibody incubation. Cells were washed 3 times in PBS and stored in PBS at 4° C. Fluorescent images were acquired within 24 hours on a Cell Insight (Thermo Fisher Scientific) using the Target Activation algorithm. Objects were identified via nuclear Hoescht staining, and changes in average mean intensity in the fluorescent signals of H4K20me3 were quantified using the HCS View software platform (Thermo Fisher Scientific).

[2] = target: SUV420H1 enzyme (Homo sapiens, UniProt Q4FZB7); assay: TR-FRET SAH SUV420H1 enzyme inhibition assay; assay type: biochemical; settings: Histone Peptide H4(8-30)me1 and SAM, TR-FRET detection of SAH, read-out: TR-FRET SAH_SUV420H1 IC50
Sequence of SUV420H1 enzyme (Q4FZB7 whole entry): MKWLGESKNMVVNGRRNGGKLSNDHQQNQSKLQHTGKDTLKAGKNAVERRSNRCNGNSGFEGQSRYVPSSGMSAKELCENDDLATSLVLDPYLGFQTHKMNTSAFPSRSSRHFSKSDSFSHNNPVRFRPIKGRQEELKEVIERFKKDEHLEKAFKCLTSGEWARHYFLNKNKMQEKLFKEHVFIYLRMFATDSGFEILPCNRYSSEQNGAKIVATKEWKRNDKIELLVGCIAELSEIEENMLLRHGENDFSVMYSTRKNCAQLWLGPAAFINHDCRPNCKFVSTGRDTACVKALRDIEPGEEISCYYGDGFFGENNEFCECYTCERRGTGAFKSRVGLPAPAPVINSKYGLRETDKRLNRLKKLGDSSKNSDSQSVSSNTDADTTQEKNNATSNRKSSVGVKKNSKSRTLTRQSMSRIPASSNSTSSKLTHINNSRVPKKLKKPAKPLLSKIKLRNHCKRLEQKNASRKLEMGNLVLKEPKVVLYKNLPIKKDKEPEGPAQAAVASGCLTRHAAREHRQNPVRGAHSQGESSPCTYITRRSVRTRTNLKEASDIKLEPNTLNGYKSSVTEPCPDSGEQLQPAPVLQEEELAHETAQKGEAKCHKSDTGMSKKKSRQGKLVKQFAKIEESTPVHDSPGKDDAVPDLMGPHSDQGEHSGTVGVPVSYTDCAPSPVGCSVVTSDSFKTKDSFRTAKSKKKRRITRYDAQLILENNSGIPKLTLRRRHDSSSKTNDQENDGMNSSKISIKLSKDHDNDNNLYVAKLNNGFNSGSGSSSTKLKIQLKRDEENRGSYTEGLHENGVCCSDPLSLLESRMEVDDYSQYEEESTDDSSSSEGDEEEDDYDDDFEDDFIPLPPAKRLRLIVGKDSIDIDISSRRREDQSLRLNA
Protocol: Test compounds were dispensed by a Labcyte Echo in 384-well low volume assay plates with 3-fold serial dilutions from 50 μM to 0.00075 μM. 5 μL of SUV420H1 enzyme (Abbvie) at 90 nM was added to all wells except for the no enzyme control wells and incubated for 30 minutes at room temperature before 5 μL of Histone Peptide H4(8-30)me1 (Anaspec) at 5 μM and SAM at 4 μM was added to all wells. The plates were incubated in a humidified chamber overnight at room temp and then 10 μL of the detection reagent that contained RIPA buffer (50 mM Tris-HCl, pH 8.0, 150 mM sodium chloride, 1.0% Igepal CA-630 (NP-40), 0.5% sodium deoxycholate and 0.1% sodium dodecyl sulfate) (Sigma) with 2 nM of Terbium chelate anti S-adenosyl-L-homocysteine (SAH) (Abbvie) antibody and Oregon Green labeled SAH at 4 nM was added. The plates were further incubated for 4 hours at room temperature. The plates were read in a Perkin Elmer Envision using a TR-FRET protocol with Excitation set at 335 nm and Emission at 520 and 495 nm. To generate dose response curves the data is normalized to percent inhibition by setting the average of the plus and minus enzyme control wells to 0% and 100% inhibition respectively. The ICso values for the compounds are generated by fitting the normalized data with Accelrys Assay Explorer 3.3 to a sigmoidal curve model using […], Y=(100*x^n)/(K^n+x^n), where Y is the measured response, x is the compound concentration, n is the Hill Slope and K is the IC50 and the lower and higher asymptotes are constrained to 0 and 100 respectively.

| Structure (SMILES) | EC50 [1] [nM] | IC50 [2] [nM] |
| --- | --- | --- |
| CN(C)c1ccc(-c2nnc(NC3CCCC3)c3cc(Cl)c(Cl)cc23)cn1 [Example 20, 6,7-dichloro-N-cyclopentyl-4-[6-(dimethylamino)pyridin-3-yl]phthalazin-1-amine] | 9540 | 415 |
| CC(C)(C)OC(=O)Cn1cc(-c2nnc(NC3CCCC3)c3cc(Cl)c(Cl)cc23)cn1 [Example 43, tert-butyl {4-[6,7-dichloro-4-(cyclopentylamino)phthalazin-1-yl]-1H-pyrazol-1-yl}acetate] | 7910 | 174 |
| Cn1cc(NC(=O)c2nnc(NC3CCCC3)c3cc(Cl)c(Cl)cc23)cn1 [Example 54, 6,7-dichloro-4-(cyclopentylamino)-N-(1-methyl-1H-pyrazol-4-yl)phthalazine-1-carboxamide] | > 20000 | 147 |
| O=C(Cn1cc(-c2nnc(NC3CCCC3)c3cc(Cl)c(Cl)cc23)cn1)NCCO [Example 56, 2-{4-[6,7-dichloro-4-(cyclopentylamino)phthalazin-1-yl]-1H-pyrazol-1-yl}-N-(2-hydroxyethyl)acetamide] | 6730 | 165 |
| CN(CCO)C(=O)Cn1cc(-c2nnc(NC3CCCC3)c3cc(Cl)c(Cl)cc23)cn1 [Example 57, 2-{4-[6,7-dichloro-4-(cyclopentylamino)phthalazin-1-yl]-1H-pyrazol-1-yl}-N-(2-hydroxyethyl)-N-methylacetamide] | 10700 | 204 |
| CN1CCN(C(=O)Cn2cc(-c3nnc(NC4CCCC4)c4cc(Cl)c(Cl)cc34)cn2)CC1 [Example 61, 2-{4-[6,7-dichloro-4-(cyclopentylamino)phthalazin-1-yl]-1H-pyrazol-1-yl}-1-(4-methylpiperazin-1-yl)ethanone] | 4990 | 190 |
| CC(=O)N1CCN(C(=O)Cn2cc(-c3nnc(NC4CCCC4)c4cc(Cl)c(Cl)cc34)cn2)CC1 [Example 62, 1-(4-acetylpiperazin-1-yl)-2-{4-[6,7-dichloro-4-(cyclopentylamino)phthalazin-1-yl]-1H-pyrazol-1-yl}ethanone] | 10500 | 333 |
| O=C(Cn1cc(-c2nnc(NC3CCCC3)c3cc(Cl)c(Cl)cc23)cn1)N1CCC(O)CC1 [Example 64, 2-{4-[6,7-dichloro-4-(cyclopentylamino)phthalazin-1-yl]-1H-pyrazol-1-yl}-1-(4-hydroxypiperidin-1-yl)ethanone] | 6570 | 188 |

These reach a lower EC50 [1]. Values come first.

| EC50 [1] [nM] | IC50 [2] [nM] | Structure (SMILES) |
| --- | --- | --- |
| 1510 | 75.3 | Clc1cc2c(NC3CCCC3)nnc(-c3ccsc3)c2cc1Cl [Example 7, 6,7-dichloro-N-cyclopentyl-4-(thiophen-3-yl)phthalazin-1-amine] |
| 2920 | 87.1 | Clc1cc2c(NC3CCCC3)nnc(N3CCCCC3)c2cc1Cl [Example 8, 6,7-dichloro-N-cyclopentyl-4-(piperidin-1-yl)phthalazin-1-amine] |
| 3430 | 373 | CN1CCN(c2nnc(NC3CCCC3)c3cc(Cl)c(Cl)cc23)CC1 [Example 9, 6,7-dichloro-N-cyclopentyl-4-(4-methylpiperazin-1-yl)phthalazin-1-amine] |
| 1050 | 525 | Clc1cc2c(NC3CCCC3)nnc(-c3ccnc(N4CCNCC4)c3)c2cc1Cl [Example 18, 6,7-dichloro-N-cyclopentyl-4-[2-(piperazin-1-yl)pyridin-4-yl]phthalazin-1-amine] |
| 1210 | 163 | Fc1ccc(-c2nnc(NC3CCCC3)c3cc(Cl)c(Cl)cc23)cn1 [Example 19, 6,7-dichloro-N-cyclopentyl-4-(6-fluoropyridin-3-yl)phthalazin-1-amine] |
| 4500 | 389 | CN(CCO)c1ccc(-c2nnc(NC3CCCC3)c3cc(Cl)c(Cl)cc23)cn1 [Example 26, 2-{[5-[6,7-dichloro-4-(cyclopentylamino)phthalazin-1-yl]pyridin-2-yl}(methyl)amino]ethanol] |
| 3080 | 470 | OC1CCN(c2cc(-c3nnc(NC4CCCC4)c4cc(Cl)c(Cl)cc34)ccn2)CC1 [Example 29, 1-{4-[6,7-dichloro-4-(cyclopentylamino)phthalazin-1-yl]pyridin-2-yl}piperidin-4-ol] |
| 465 | 1050 | OCCNc1ccc(-c2nnc(NC3CCCC3)c3cc(Cl)c(Cl)cc23)cn1 [Example 30, 2-({5-[6,7-dichloro-4-(cyclopentylamino)phthalazin-1-yl]pyridin-2-yl}amino)ethanol] |
| 1120 | 90.3 | COC(=O)c1nnc(NC2CCCC2)c2cc(Cl)c(Cl)cc12 [Example 37, methyl 6,7-dichloro-4-(cyclopentylamino)phthalazine-1-carboxylate] |
| 532 | 229 | NC1CCN(c2cc(-c3nnc(NC4CCCC4)c4cc(Cl)c(Cl)cc34)ccn2)C1 (stereo not shown) [Example 40, 4-[2-(3-aminopyrrolidin-1-yl)pyridin-4-yl]-6,7-dichloro-N-cyclopentylphthalazin-1-amine] |
| 2830 | 127 | NC(=O)c1nnc(NC2CCCC2)c2cc(Cl)c(Cl)cc12 [Example 42, 6,7-dichloro-4-(cyclopentylamino)phthalazine-1-carboxamide] |
| 2490 | 140 | O=C(NCCO)c1nnc(NC2CCCC2)c2cc(Cl)c(Cl)cc12 [Example 66, 6,7-dichloro-4-(cyclopentylamino)-N-(2-hydroxyethyl)phthalazine-1-carboxamide] |

From patent US20180093956A1, “SUBSTITUTED PHTHALAZINES” (AbbVie Inc., priority 2015, published 2018)
